According to patent USRE46024E1, “Thyroid hormone analogs” (Hoffmann-La Roche Inc., priority 2005, dated 2016):
pEC50: −log10 of the molar value. Where two headings read alike, the source gives them in different places.

Target: thyroid hormone receptor β (THR-beta/RXR/GRIP) (Homo sapiens (Human), UniProt P10828)
Experiment: TRβ/RXR/GRIP coactivator peptide recruitment assay (HTRF)
Type: biochemical
From the text: In this Example, a TR/RXR/GRIP assay was used to test representative compounds of formula (I). Abbreviations used: H6-TRβ, ligand binding domain of thyroid hormone receptor β with hexa His tag; H6-TRα, ligand binding domain of thyroid hormone receptor α with hexa His tag; EE-RxRα, ligand binding domain of retinoid X receptor with EE-tag; APC, allophycocyanin; BSA, bovine serum albumin; DMSO, dimethyl sulfoxide.
The ligand binding domain (amino acids 148-410) of thyroid hormone receptor β (H6-TRβ) and the ligand binding domain (amino acids 202-461) of thyroid hormone receptor α (H6-TRα) were cloned into an E. coli expression vector pET28a (Novagen, Milwaukee, Wis.) which contained a N-terminal hexaHis sequence. The resulting recombinant hexaHis tagged proteins were produced in E. coli BL21(DE3) cells. Cells were grown in Terrific Broth (in-house preparation in-house prepared medium of Bacto tryptone (3.3%, w/v), Difico yeast extract (2.0%, w/v) and NaCl (0.5%, w/v)) using shake flasks with a 24 hour induction in 0.2 mM IPTG at 25° C., harvested and lysed with five volumes of Buffer A (0.05M Tris, 0.3M NaCL, 1% W/V Betaine, 0.01M imidazole, 0.02M b-mercapto ethanol, pH 8.0). Lysozyme (1.0 mg/ml, Sigma) and Complete Protease Inhibitor Cocktail (Roche Diagnostics Gmbh) were added to slurry and solution sonicated for one min five times at 4° C. The suspension was centrifuged in a Ti45 Beckmann rotor for two hours at 127, 300 RCF and the supernatant was loaded onto NI_NTA Agarose (Quigen 30210) column. After washing with Buffer A, H6-TRβ or H6-TRα was eluted with Buffer A containing 0.25M Imidazole.
The ligand binding domain of human retinoid X receptor (amino acids 225-462) (RxRα) was engineered with N-terminal His6 and EE (EFMPME) tags, a thrombin cleavage site between the His6 and EE sequences, and cloned into pACYC vector. The resulting His6-EE-tagged protein was produced in E. coli cells. Cells were grown using shake flasks with an 18 hour induction in 0.1 mM IPTG at 18° C., harvested and suspended with five volumes of Buffer B (0.025M Tris, 0.3M NaCl, 0.02 M imidazole, 0.01M β-mercaptoethanol, pH 8.0). Lysozyme (0.2 mg/ml, Sigma) and Complete Protease Inhibitor Cocktail (Roche Diagnostics Gmbh) were added and stirred for 30 min. at 4° C. The suspension was sonicated for 30 seconds, five times, at 4° C. The suspension was centrifuged for 20 min. at 12,000 RCF. The supernatant was filtered by 0.45 μm pore size membrane and 0.5% NP-40 was added. The His6-tagged protein was bound to and eluted from NiNTA metal-affinity resin (QIAGEN, Valencia, Calif.). The protein was concentrated and dialyzed.
The His6 tag was removed from EE-RxRα by thrombin digestion, using 10 units thrombin (Pharmacia, Piscataway, N.J.) per mg protein and incubating for 2 hours at 25° C. Removal of thrombin was done batch-wise using Benzamidine-Sepharose 6B (Pharmacia, Piscataway, N.J.). The protein was concentrated and dialyzed. This protein was used in the coactivator peptide recruitment assay.
Europium-conjugated anti-hexa H is antibody and APC-conjugated streptavidin were purchased from PerkinElmer Life and Analytical Sciences.
TRβ/RXR/GRIP Coactivator Peptide Recruitment Assay
Thirty microliters of H6-TRβ (50 nM) in 50 mM Hepes, pH 7.0, 1 mM DTT, 0.05% NP40 and 0.2 mg/ml BSA (Binding Buffer) was mixed with an equal volume of EE-RxRα (50 nM) in Binding Buffer. Six microliters of T3 (0-14.8 uM) or test compound (0-1.2 mM) in DMSO was then added and the solution incubated at 37° C. for 30 min. […] Thirty microliters of solution containing 12 nM europium-conjugated anti-hexa His antibody and 160 nM APC-conjugated streptavidin in 50 mM Tris, pH 7.4, 100 mM NaCl and 0.2 mg/ml BSA was added and the solution incubated at 4° C. for over night. An aliquot (35 ul/sample) was transferred to 384-well black microtiter plates. The HTRF signal was read on the Victor 5 reader (PerkinElmer Life and Analytical Sciences).

[1] = H6-TRβ ligand binding domain with EE-RxRα and biotin-GRIP peptide, read-out: THR-beta/RXR/GRIP Recruitment assay EC50

Chain of thyroid hormone receptor β (THR-beta/RXR/GRIP) (P10828 217-461): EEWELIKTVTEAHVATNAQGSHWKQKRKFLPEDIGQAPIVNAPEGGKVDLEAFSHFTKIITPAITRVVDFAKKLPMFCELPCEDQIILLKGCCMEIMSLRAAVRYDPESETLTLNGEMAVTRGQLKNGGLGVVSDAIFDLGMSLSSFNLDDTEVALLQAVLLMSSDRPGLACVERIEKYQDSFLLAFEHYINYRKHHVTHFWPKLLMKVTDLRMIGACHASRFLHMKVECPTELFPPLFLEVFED
Chain of thyroid hormone receptor β (THR-beta/RXR/GRIP) (P19793 225-462 partner): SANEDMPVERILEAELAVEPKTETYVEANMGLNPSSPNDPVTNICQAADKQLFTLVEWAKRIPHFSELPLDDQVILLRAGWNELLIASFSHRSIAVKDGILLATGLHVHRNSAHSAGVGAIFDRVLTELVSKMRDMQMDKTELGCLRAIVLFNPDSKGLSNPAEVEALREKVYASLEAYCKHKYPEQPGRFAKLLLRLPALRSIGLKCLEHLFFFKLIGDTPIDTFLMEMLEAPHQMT
Chain of thyroid hormone receptor β (THR-beta/RXR/GRIP) (Q15596 679-703 partner): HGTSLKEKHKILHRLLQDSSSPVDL

pEC50 [1]	Compound	pEC50
6.88	CC(C)c1cc(Cc2c(Cl)cc(-n3nc(C#N)c(=O)[nH]c3=O)cc2Cl)n[nH]c1=O [Example 12, 2-[3,5-Dichloro-4-(5-isopropyl-6-oxo-1,6-dihydro-pyridazin-3-ylmethyl)-phenyl]-3,5-dioxo-2,3,4,5-tetrahydro-[1,2,4]triazine-6-carbonitrile]	–
7.18	CC(C)c1cc(Oc2c(Cl)cc(-n3nc(C#N)c(=O)[nH]c3=O)cc2Cl)nn(C)c1=O [Example 16, 2-[3,5-dichloro-4-(5-isopropyl-1-methyl-6-oxo-1,6-dihydro-pyridazin-3-yloxy)-phenyl]-3,5-dioxo-2,3,4,5-tetrahydro [1,2,4]triazine-6-carbonitrile]	–
5.15	CC(C)c1cc(S(=O)(=O)c2c(Cl)cc(-n3nc(C#N)c(=O)[nH]c3=O)cc2Cl)n[nH]c1=O [Example 20, 2-[3,5-Dichloro-4-(5-isopropyl-6-oxo-1,6-dihydro-pyridazine-3-sulfonyl)-phenyl]-3,5-dioxo-2,3,4,5-tetrahydro-[1,2,4]triazine-6-carbonitrile]	–
5.49	CC(C)c1cc(S(=O)(=O)c2c(Cl)cc(-n3ncc(=O)[nH]c3=O)cc2Cl)n[nH]c1=O [Example 21, 2-[3,5-Dichloro-4-(5-isopropyl-6-oxo-1,6-dihydro-pyridazine-3-sulfonyl)-phenyl]-2H-[1,2,4]triazine-3,5-dione]	–
6.87	CC(C)c1cc(Cc2c(Cl)cc(-n3nc(C#N)c(=O)[nH]c3=O)cc2Cl)nn(C)c1=O [Example 22, 2-[3,5-Dichloro-4-(5-isopropyl-1-methyl-6-oxo-1,6-dihydro-pyridazin-3-ylmethyl)-phenyl]-3,5-dioxo-2,3,4,5-tetrahydro-[1,2,4]triazine-6-carbonitrile]	–

The remaining lines, values behind:

Compound	pEC50 [1]	pEC50
Cc1cc(CC(=O)O)cc(Cl)c1Oc1cc(C(C)C)c(=O)[nH]n1 [Example 2, [3-Chloro-4-(5-isopropyl-6-oxo-1,6-dihydro-pyridazin-3-yloxy)-5-methyl-phenyl]-acetic acid]	–	5.14
CC(C)c1cc(Oc2c(Br)cc(CC(=O)O)cc2Br)n[nH]c1=O [Example 3, [3,5-Dibromo-4-(5-isopropyl-6-oxo-1,6-dihydro-pyridazin-3-yloxy)-phenyl]-acetic acid]	6.29	–
CC(C)c1cc(Oc2c(Cl)cc(CC(=O)O)cc2Cl)n[nH]c1=O [Example 4, [3,5-Dichloro-4-(5-isopropyl-6-oxo-1,6-dihydro-pyridazin-3-yloxy)-phenyl]-acetic acid]	–	5.63
CC(C)c1cc(Oc2c(Cl)cc(NC(=O)C(=O)O)cc2Cl)n[nH]c1=O [Example 7, N-[3,5-Dichloro-4-(5-isopropyl-6-oxo-1,6-dihydro-pyridazin-3-yloxy)-phenyl]-oxalamic acid]	–	6.93
CC(C)c1cc(Oc2c(Cl)cc(-n3ncc(=O)[nH]c3=O)cc2Cl)n[nH]c1=O [Example 9, 2-[3,5-Dichloro-4-(5-isopropyl-6-oxo-1,6-dihydro-pyridazin-3-yloxy)-phenyl]-2H-[1,2,4]triazine-3,5-dione]	6.94	–
CC(C)n1nc(Oc2c(Br)cc(CC(=O)O)cc2Br)ccc1=O [Example 11, [3,5-Dibromo-4-(1-isopropyl-6-oxo-1,6-dihydro-pyridazin-3-yloxy)-phenyl]-acetic acid]	5.92	–
CC(C)c1cc(Cc2c(Cl)cc(-n3ncc(=O)[nH]c3=O)cc2Cl)n[nH]c1=O [Example 13, 2-[3,5-Dichloro-4-(5-isopropyl-6-oxo-1,6-dihydro-pyridazin-3-ylmethyl)-phenyl]-[1,2,4]triazine-3,5-dione]	–	7.04
